Data from patent US4656036A, “Antibiotics Tejeramycin and production thereof” (Merck & Co., Inc., priority 1985, dated 1987).

Test system: Pseudomonas aeruginosa MB 2835
Assay: In vivo activity against Pseudomonas aeruginosa MB 2835 systemic infections in mice (Table X)
Set-up: species or system Pseudomonas aeruginosa; CD 1 female mice
Settings: for s.c./i.p. ED50 administration ratio: 10080 min; for ED50 i.p.: i.p. at 0 and 6 hours after infection; for ED50 i.p. / ED50 s.c.: multiplied by two doses, 7 days observation; for ED50 s.c.: s.c. at 0 and 6 hours after infection
Experimental: The in vivo activities of Tejeramycin, components A through G were determined against Pseudomonas aeruginosa MB 2835 infections in mice. Experimental systemic infections were produced in CD 1 female mice (Charles River Breeding Labs., Wilmington, Ma.), average body weight 19-22 grams, by the intraperitoneal (i.p.) injection of a suitably diluted overnight culture of Pseudomonas aeruginosa MB-2835 in brain heart infusion broth (Difco). The challenge dose varied from about 11-50 LD50 's LD50 =median lethal dose, the dose that should kill 50% of the infected, untreated mice). Under these conditions, the infected, untreated mice died within 48 hours.
The antibiotics were administered as aqueous solutions by intraperitoneal or subcutaneous (s.c.) injection at 0 and 6 hours after infection. At least four different dose levels of the antibiotics were used; each dose group consisted of five mice. […] Statist. Assoc. 42: 282-296, 1947.
From rich cuts 1-9e described in Tables III and IV, a series of seven samples were prepared for in vivo evaluation. Sample composition as well as in vivo results are summarized in Table X. Carbenicillin and gentamicin were included as controls.

Molecule	s.c./i.p. ED50 administration ratio (Example A)	ED50 i.p. (Example A) [mg]	ED50 s.c. (Example A) [mg]	s.c./i.p. ED50 administration ratio (Example B)	ED50 i.p. (Example B) [mg]	ED50 s.c. (Example B) [mg]
CC1(C)S[C@@H]2[C@H](NC(=O)C(C(=O)O)c3ccccc3)C(=O)N2[C@H]1C(=O)O (stereo partly drawn) [Carbenicillin]	3.2	5.31	17.1	1.5	4.14	6.04
Gentamicin	23	0.013	0.30	20	0.0063	0.125
